From US9682033B2, “Methods of treating postherpetic neuralgia with a topical formulation of a spiro-oxindole compound” (Teva Pharmaceuticals International GmbH, priority 2015, dated 2017)
Where “and” joins values, the source holds several entries; their conditions need not be identical. Equal values may be shown once. Entries after “also recorded” stand apart in the source; their conditions may differ.

Legend:
NaV1.7 = NaV1.7 (Homo sapiens, UniProt Q15858); assay: In vitro electrophysiological studies: block of NaV1.7; format: biochemical; conditions: fold greater for the inactivated state
Description: NaV1.7 is expressed primarily in the peripheral nervous system in both sensory and sympathetic neurons (Raymond, C. K., et al., op. cit.). Loss-of-function mutations in SCN9A (the gene encoding the alpha subunit of the NaV1.7 sodium channel) cause a human condition known as congenital indifference to pain characterized by an inability to perceive pain (Cox, J. J., et al., Nature (2006), 444:894-98; Goldberg, Y. P., et al., Clin Genet (2007), 71:311-9). Gain-of-function mutations in SCN9A are associated with inherited erythromelalgia (IEM) (Drenth, J. P., et al., J Invest Dermatology (2005), 124:1333-8), which is characterized by spontaneous or easily evoked severe pain. Furthermore, up to 29% of biopsy-proven cases of idiopathic small-fiber neuropathy manifesting mainly as distal severe pain (Faber, C. G., et al., Ann Neurol (2012), 71:26-39) are associated with gain-of-function NaV1.7 channel mutations.

[1] = Protein binding in rat serum; format: in vitro ADME
[2] = Protein binding in dog plasma; format: in vitro ADME
rat hepatocytes = assay: In vitro metabolic stability in hepatocytes (rat); format: in vitro ADME; conditions: ^14C-spiro-oxindole compound
Description: (§1) A total of 8 metabolites were identified in samples (in vitro and in vivo) from rats, dogs, and humans. All metabolites found in humans were also found in the Good Laboratory Practice (GLP) toxicology species, the rat. Following oral administration of spiro-oxindole compound to humans, spiro-oxindole compound and 3 of its metabolites (M1, M5, and M6) were measurable. A similar metabolic profile was observed following topical administration to humans, albeit at much lower plasma concentrations, except metabolite M1 was not detected following human topical administration.

[3] = Metabolite identification in samples (in vitro and in vivo); format: in vitro ADME; conditions: samples (in vitro and in vivo) from rats, dogs, and humans
Description: as §1

[4] = ADME study in the minipig after repeated daily dermal dosing (Biological Example 1); format: in vivo, Göttingen minipig; conditions: for mean tissue radioactivity concentration / total radioactivity in tissue: 24 h after [^14C] dermal dose
Description: On the day prior to the first dermal dose, the dorsum and flanks of each animal were carefully clipped using electric clippers and shaved using an electric rotary head shaver (Phillips). Clipping and shaving was as close as possible to the skin, whilst avoiding damage to the dose site. […] The corners of the treatment area (equivalent to about 6% body surface area, 11 cm×19 cm-12 cm×22 cm) were marked using an indelible pen. The process of hair removal was repeated periodically during the dose administration period as necessary.

CYP450 2C19 (CYP2C19) = CYP450 2C19 (CYP2C19) (Homo sapiens, UniProt P33261); assay: Reaction phenotyping with recombinant human CYP450 enzymes: CYP2C19; format: in vitro ADME
3A4 (CYP3A4) = 3A4 (CYP3A4) (Homo sapiens, UniProt P08684); assay: Reaction phenotyping with recombinant human CYP450 enzymes: CYP3A4; format: in vitro ADME
CYP3A4 = assay: Drug-drug interaction study in dogs, oral spiro-oxindole compound with iv midazolam as CYP3A4 substrate; format: in vivo; conditions: oral administration
[5] = 4-week (GLP) repeat-dose dermal toxicity study in minipigs; conditions: minipig, in vivo, topical or ocular, 30 mg/kg/day dermal, day 28; for AUC(0-t): read-out: AUC0-24 h
Experimental: Repeat-dose dermal toxicity of a pharmaceutical composition comprising the spiro-oxindole compound was evaluated in minipigs in a 7-day (non-GLP) dermal study and in a 4-week (GLP) dermal study with a 2-week recovery period. In addition, a dose range-finding (DRF) dermal study in minipigs was conducted to aid in dose selection for a 39-week dermal toxicity study in minipigs.
However, the vehicle ointment produced in all treatment groups transient, mild to moderate, and occasionally severe dermal irritation that returned to normal during the recovery period. This correlated with minimal epidermal hyperplasia observed microscopically in the treated skin across all groups.

[6] = system: bacterial reverse mutation; assay: Bacterial reverse mutation assay (GLP); format: cell-based
Description: (§2) The spiro-oxindole compound was not genotoxic in the standard battery of genotoxicity tests (GLP), including a bacterial reverse mutation assay, an in vitro chromosome aberration assay in cultured human lymphocytes, and an in vivo rat bone marrow micronucleus test.

[7] = system: cultured human lymphocytes; assay: In vitro chromosome aberration assay in cultured human lymphocytes (GLP); format: cell-based
Description: as §2

in vivo = assay: in vivo; set-up: species or system rats; conditions: rat, po
Experimental: The no-observed-adverse-effect level (NOAEL) was determined to be 150 mg/kg/day in both males and females. […] The NOAEL for maternal toxicity was 50 mg/kg/day. […] The NOAEL for embryo-fetal toxicity was 150 mg/kg/day.

[8] = Phototoxicity assays (in vitro or in vivo)
[9] = Drug-drug interaction study in healthy subjects: pharmacokinetics of the spiro-oxindole compound (Biological Example 5); format: in vivo, human
Description: Pharmacokinetic parameters were derived by noncompartmental analysis.

[10] = system: CCI model of neuropathic pain; assay: Chronic constriction injury (CCI) model of neuropathic pain; conditions: rat, in vivo

Chain of 3A4 (CYP3A4) (P08684 whole entry): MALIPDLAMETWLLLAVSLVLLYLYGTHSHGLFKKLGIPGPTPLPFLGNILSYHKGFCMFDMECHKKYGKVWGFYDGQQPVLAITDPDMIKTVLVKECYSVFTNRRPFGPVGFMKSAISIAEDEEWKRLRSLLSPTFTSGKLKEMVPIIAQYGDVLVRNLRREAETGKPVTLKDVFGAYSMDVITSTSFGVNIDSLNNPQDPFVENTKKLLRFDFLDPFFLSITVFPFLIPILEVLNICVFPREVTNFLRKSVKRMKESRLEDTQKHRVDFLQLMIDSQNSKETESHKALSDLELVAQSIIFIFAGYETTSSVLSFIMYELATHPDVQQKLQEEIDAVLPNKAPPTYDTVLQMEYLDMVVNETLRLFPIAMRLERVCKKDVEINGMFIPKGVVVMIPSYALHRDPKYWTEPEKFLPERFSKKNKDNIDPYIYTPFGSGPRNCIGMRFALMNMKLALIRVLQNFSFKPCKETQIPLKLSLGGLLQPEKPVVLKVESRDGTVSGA
Chain of CYP450 2C19 (CYP2C19) (P33261 whole entry): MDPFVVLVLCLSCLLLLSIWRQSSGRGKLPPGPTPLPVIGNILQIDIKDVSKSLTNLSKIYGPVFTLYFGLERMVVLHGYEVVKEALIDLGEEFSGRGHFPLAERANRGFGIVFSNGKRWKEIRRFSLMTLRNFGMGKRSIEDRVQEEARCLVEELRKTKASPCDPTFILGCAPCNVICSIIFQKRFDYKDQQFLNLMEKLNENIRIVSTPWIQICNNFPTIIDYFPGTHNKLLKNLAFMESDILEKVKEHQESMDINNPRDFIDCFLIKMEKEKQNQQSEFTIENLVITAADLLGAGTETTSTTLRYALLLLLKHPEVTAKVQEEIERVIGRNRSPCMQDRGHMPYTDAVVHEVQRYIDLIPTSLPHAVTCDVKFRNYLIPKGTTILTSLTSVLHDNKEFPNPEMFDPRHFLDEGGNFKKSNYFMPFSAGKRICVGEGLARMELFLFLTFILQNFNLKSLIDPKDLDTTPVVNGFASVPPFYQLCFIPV
Chain of NaV1.7 (Q15858 whole entry): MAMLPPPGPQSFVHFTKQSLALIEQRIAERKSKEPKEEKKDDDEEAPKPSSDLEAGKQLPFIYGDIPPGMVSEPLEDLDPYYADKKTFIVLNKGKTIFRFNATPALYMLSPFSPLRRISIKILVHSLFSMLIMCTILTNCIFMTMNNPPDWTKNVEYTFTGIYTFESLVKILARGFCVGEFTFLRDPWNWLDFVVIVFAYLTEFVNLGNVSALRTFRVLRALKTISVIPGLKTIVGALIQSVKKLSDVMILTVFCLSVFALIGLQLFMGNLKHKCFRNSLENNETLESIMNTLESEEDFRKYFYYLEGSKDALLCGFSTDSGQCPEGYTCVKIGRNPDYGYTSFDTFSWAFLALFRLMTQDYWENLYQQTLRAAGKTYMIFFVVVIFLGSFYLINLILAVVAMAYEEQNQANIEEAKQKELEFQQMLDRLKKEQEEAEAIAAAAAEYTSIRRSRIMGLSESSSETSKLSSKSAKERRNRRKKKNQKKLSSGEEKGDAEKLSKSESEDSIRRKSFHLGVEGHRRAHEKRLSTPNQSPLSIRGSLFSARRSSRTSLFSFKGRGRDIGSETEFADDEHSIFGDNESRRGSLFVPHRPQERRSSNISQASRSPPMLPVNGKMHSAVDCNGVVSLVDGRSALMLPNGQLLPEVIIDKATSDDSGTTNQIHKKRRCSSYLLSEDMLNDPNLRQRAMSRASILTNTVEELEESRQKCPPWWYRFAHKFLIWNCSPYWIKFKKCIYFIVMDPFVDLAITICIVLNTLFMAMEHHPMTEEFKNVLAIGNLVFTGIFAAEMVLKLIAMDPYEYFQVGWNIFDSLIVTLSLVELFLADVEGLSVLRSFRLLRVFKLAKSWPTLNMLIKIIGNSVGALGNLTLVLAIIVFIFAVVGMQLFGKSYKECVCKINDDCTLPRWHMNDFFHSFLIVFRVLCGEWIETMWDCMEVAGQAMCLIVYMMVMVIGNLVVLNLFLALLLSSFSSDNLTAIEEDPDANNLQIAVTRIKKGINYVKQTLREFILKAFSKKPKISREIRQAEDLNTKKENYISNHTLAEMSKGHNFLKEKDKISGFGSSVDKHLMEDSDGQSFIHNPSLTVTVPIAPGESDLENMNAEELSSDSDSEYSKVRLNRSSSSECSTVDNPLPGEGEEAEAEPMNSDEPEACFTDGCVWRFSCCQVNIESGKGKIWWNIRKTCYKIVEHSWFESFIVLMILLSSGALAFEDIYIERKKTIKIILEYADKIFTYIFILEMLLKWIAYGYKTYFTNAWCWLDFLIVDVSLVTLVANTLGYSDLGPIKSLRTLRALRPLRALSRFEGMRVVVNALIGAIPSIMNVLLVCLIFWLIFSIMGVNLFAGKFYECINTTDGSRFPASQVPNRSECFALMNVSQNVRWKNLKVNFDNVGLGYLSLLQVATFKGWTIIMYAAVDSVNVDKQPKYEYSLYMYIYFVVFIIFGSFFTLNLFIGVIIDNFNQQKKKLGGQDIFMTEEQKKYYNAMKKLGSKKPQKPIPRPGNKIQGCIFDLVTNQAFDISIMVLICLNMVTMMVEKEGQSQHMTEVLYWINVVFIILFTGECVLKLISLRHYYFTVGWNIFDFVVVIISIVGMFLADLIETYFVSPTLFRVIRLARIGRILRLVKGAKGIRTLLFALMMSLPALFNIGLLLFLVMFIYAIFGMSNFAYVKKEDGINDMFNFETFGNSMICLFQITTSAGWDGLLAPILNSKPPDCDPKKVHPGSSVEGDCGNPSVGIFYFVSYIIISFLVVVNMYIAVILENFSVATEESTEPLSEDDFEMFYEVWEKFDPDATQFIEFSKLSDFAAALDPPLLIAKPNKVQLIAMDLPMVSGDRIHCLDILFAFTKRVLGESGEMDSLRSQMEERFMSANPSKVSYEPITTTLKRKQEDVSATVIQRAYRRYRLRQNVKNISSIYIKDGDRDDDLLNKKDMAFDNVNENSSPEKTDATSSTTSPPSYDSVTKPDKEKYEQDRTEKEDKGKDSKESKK

Question: Which “potency of block against NaV1.7, inactivated state compared with resting state” value (NaV1.7) does the source give for `O=C1N(Cc2ccc(C(F)(F)F)o2)c2ccccc2[C@]12COc1cc3c(cc12)OCO3` [spiro-oxindole compound, (S)-1′-{[5-(trifluoromethyl)furan-2-yl]methyl}spiro[furo[2,3-f][1,3]benzodioxole-7,3′-indol]-2′(1′H)-one] here?
Answer: approximately 220 fold

Question: And the protein bound [1]?
Answer: 99.6%

Question: And the protein bound [2]?
Answer: 98.3%

Question: And the “in vitro metabolic stability in hepatocytes” value (rat hepatocytes)?
Answer: 16%

Question: What about the “total number of metabolites identified” value [3] of the same compound?
Answer: 8 metabolites

Question: And the Cmax ([4]; male, Göttingen, minipig, plasma, topical or ocular, 70 mg ointment/kg, minipigs, 21 days of repeated dermal dosing, read-out: mean maximum observed concentration (Cmax) in plasma)?
Answer: 15 ng/mL

Question: And the “mean tissue radioactivity concentration” value ([4]; minipig, bone marrow)?
Answer: 154 ng equivalents spiro-oxindole compound/g

Question: And the “mean tissue radioactivity concentration” value ([4]; minipig, fat (abdominal / white))?
Answer: 273 ng equivalents spiro-oxindole compound/g

Question: And the “mean tissue radioactivity concentration” value ([4]; minipig, fat (brown))?
Answer: 100 ng equivalents spiro-oxindole compound/g

Question: And the “mean tissue radioactivity concentration” value ([4]; minipig, gall bladder contents)?
Answer: 4870 ng equivalents spiro-oxindole compound/g

Question: What about the “total radioactivity in tissue” value ([4]; minipig, heart) of the same compound?
Answer: 18.5 ng equiv spiro-oxindole compound/g

Question: And the “total radioactivity in tissue” value ([4]; minipig, liver)?
Answer: 74.9 ng equiv spiro-oxindole compound/g

Question: What about the “mean tissue radioactivity concentration” value ([4]; minipig, muscle underlying the dose site) of the same compound?
Answer: 142 ng equivalents spiro-oxindole compound/g

Question: What about the “mean tissue radioactivity concentration” value ([4]; minipig, skin from the dose site) of the same compound?
Answer: 25500 ng equivalents spiro-oxindole compound/g

Question: What about the “mean tissue radioactivity concentration” value ([4]; minipig, skin remote from the dose site) of the same compound?
Answer: 111 ng equivalents spiro-oxindole compound/g

Question: And the “systemic exposure (in words)” value ([4]; minipigs, repeated daily dermal dosing of 8% ointment)?
Answer: low systemic exposure

Question: And the “contribution to spiro-oxindole compound metabolism” value (CYP450 2C19 (CYP2C19))?
Answer: major contributors

Question: What about the “contribution to spiro-oxindole compound metabolism” value (3A4 (CYP3A4)) of the same compound?
Answer: major contributors

Question: And the “spiro-oxindole compound plasma concentrations without evidence of a DDI” value (CYP3A4)?
Answer: up to 752 ng/mL and ≤ 1.8 μM

Question: And the “drug-drug interaction with iv midazolam (CYP3A4 substrate)” value (CYP3A4; plasma concentrations up to 752 ng/mL (i.e., 1.8 μM))?
Answer: no evidence of a DDI

Question: What about the Cmax ([5]; female minipigs) of the same compound?
Answer: 20 ng/mL

Question: And the AUC(0-t) ([5]; female minipigs)?
Answer: 382 ng·h/mL

Question: And the Cmax ([5]; male minipigs)?
Answer: 21 ng/mL

Question: And the AUC(0-t) ([5]; male minipigs)?
Answer: 365 ng·h/mL

Question: What about the genotoxicity [6] of the same compound?
Answer: not genotoxic

Question: And the genotoxicity [7]?
Answer: not genotoxic

Question: What about the NOAEL (in vivo; both sexes) of the same compound?
Answer: 150 mg/kg/day

Question: And the AUC(0-t) (in vivo; female, 50 mg/kg/day)?
Answer: 18000 ng·h/mL

Question: And the Cmax (in vivo; female, 50 mg/kg/day)?
Answer: 1440 ng/mL

Question: What about the AUC(0-t) (in vivo; female, 150 mg/kg/day) of the same compound?
Answer: 41500 ng·h/mL

Question: And the Cmax (in vivo; female, 150 mg/kg/day)?
Answer: 3380 ng/mL

Question: And the NOAEL (in vivo; female, NOAEL for embryo-fetal toxicity)?
Answer: 150 mg/kg/day

Question: And the NOAEL (in vivo; female, NOAEL for maternal toxicity)?
Answer: 50 mg/kg/day

Question: And the phototoxicity potential [8]?
Answer: did not show phototoxicity potential

Question: And the “relationship of exposure with CYP2C19 phenotype” value [9]?
Answer: no apparent relationship

Question: And the “mean plasma concentration at the follow-up visit (360±24 hours)” value ([9]; after final application of 8% composition)?
Answer: 0.32629 ng/mL

Question: What about the Cmax ([9]; both sexes, human, plasma, topical, 8 % composition applied to 53% of BSA, BID, day 9, over 24 hours from the final application, read-out: geometric mean Cmax) of the same compound?
Answer: 15.1 ng/mL

Question: And the AUC(0-t) ([9]; both sexes, human, plasma, topical, 8 % composition applied to 53% of BSA, BID, first 12 hours after the final application, read-out: geometric mean AUC0-12)?
Answer: 133 ng·h/mL

Question: What about the concentration at 24 hours ([9]; both sexes, human, plasma, topical, 8 % composition applied to 53% of BSA, day 9, after final application of 8% composition (BID, 53% BSA, 7.5 days), read-out: mean plasma concentration at 24 hours postdose) of the same compound?
Answer: 11.7 ng/mL

Question: And the “geometric mean Ctrough (predose value)” value ([9]; day 9, topical 8% composition BID 53% BSA)?
Answer: 12.76052 ng/mL

Question: And the “average concentration over the 12-hour period” value ([9]; first 12 hours after the final application)?
Answer: 11075.55 pg/mL

Question: What about the “steady state (in words)” value ([9]; topical BID dosing) of the same compound?
Answer: steady state had not been achieved after 7.5 days of dosing; also recorded: did not reach steady state within 7.5 days

Question: And the “efficacy compared with gabapentin” value [10]?
Answer: comparable efficacy to gabapentin
